In this test the test system is spontaneously hypertensive rats. In words: antihypertensive activity in the spontaneously hypertensive rat model. Particulars: oral administration at 20 mg/kg. In kind it is in vivo. How it is done:
The antihypertensive activity of certain compounds of the present invention was determined using the spontaneously hypertensive rat model. The details of this in vivo test are found in Roesler, J. M., et al., J. Pharmacol. Exp. Ther., 236:1-7 (1986).

Take “N-[(7-Chloro-3,4,5,6-tetrahydro-4-methylthieno[4,3,2-ef][3]benzazepin-2-yl)methyl]2-methylpropanesulfonamide [Example 7]”: the arterial blood pressure result is listed as “dose related reduction in arterial blood pressure”.

The values above are taken from US4981848A, “Alpha-adrenergic receptor antagonists” (SmithKline Beecham Corporation, priority 1989, dated 1991).
